Assay results taken from PubChem BioAssay AID504400 (The Scripps Research Institute Molecular Screening Center, 2011).
Active and inactive are the calls of the source. How the calls were made is not given here.

Tests used:
Assay in all cases: CYP450 and receptor off-target profile – biochemical, Ricerca HitProfilingScreen, selectivity assay for S1P4 agonist project, late-stage follow-up (AID 504400)
[1] = target: Muscarinic acetylcholine receptor M2 (Homo sapiens) (UniProt P08172); conditions: Ricerca radioligand binding/enzyme panel plus CYP450, at 10 µM, stronger effect = higher value
[2] = test system: Adrenergic beta1; conditions: Ricerca radioligand binding/enzyme panel plus CYP450, at 10 µM, stronger effect = higher value
[3] = test system: Sodium Channel, Site 2; conditions: Ricerca radioligand binding/enzyme panel plus CYP450, at 10 µM, stronger effect = higher value
[4] = target: Muscarinic acetylcholine receptor M3 (Homo sapiens) (UniProt P20309); conditions: Ricerca radioligand binding/enzyme panel plus CYP450, at 10 µM, stronger effect = higher value
[5] = test system: GABAA; conditions: Central, at 10 µM, stronger effect = higher value
[6] = test system: Prostanoid EP4; conditions: Ricerca radioligand binding/enzyme panel plus CYP450, at 10 µM, stronger effect = higher value
[7] = test system: Glutamate NMDA; conditions: Ricerca radioligand binding/enzyme panel plus CYP450, Phencyclidine, at 10 µM, stronger effect = higher value
[8] = target: D(1A) dopamine receptor (Homo sapiens) (UniProt P21728); conditions: Ricerca radioligand binding/enzyme panel plus CYP450; Dopamine D1; at 10 µM; stronger effect = higher value
[9] = test system: Adenosine A1; conditions: Ricerca radioligand binding/enzyme panel plus CYP450, at 10 µM, stronger effect = higher value
[10] = test system: Opiate mu (OP3, MOP); conditions: Ricerca radioligand binding/enzyme panel plus CYP450, at 10 µM, stronger effect = higher value
[11] = test system: Cannabinoid CB1; conditions: Ricerca radioligand binding/enzyme panel plus CYP450, at 10 µM, stronger effect = higher value
[12] = test system: Sigma 1; conditions: Ricerca radioligand binding/enzyme panel plus CYP450, at 10 µM, stronger effect = higher value
[13] = test system: Transporter, Norepinephrine (NET); conditions: Ricerca radioligand binding/enzyme panel plus CYP450, at 10 µM, stronger effect = higher value
[14] = target: Cytochrome P450 1A2 (Homo sapiens) (UniProt P05177); conditions: Ricerca radioligand binding/enzyme panel plus CYP450; CYP450, 1A2; at 10 µM; stronger effect = higher value
[15] = target: Beta-2 adrenergic receptor (Homo sapiens) (UniProt P07550); conditions: Ricerca radioligand binding/enzyme panel plus CYP450; Adrenergic beta2; at 10 µM; stronger effect = higher value
[16] = target: Voltage-gated inwardly rectifying potassium channel KCNH2 (Homo sapiens) (UniProt Q12809); conditions: Ricerca radioligand binding/enzyme panel plus CYP450; Potassium Channel hERG; at 10 µM; stronger effect = higher value
[17] = target: Alpha-2A adrenergic receptor (Homo sapiens) (UniProt P08913); conditions: Ricerca radioligand binding/enzyme panel plus CYP450; Adrenergic alpha2A; at 10 µM; stronger effect = higher value
[18] = test system: Dopamine D2S; conditions: Ricerca radioligand binding/enzyme panel plus CYP450, at 10 µM, stronger effect = higher value
[19] = test system: Calcium Channel L-Type; conditions: Ricerca radioligand binding/enzyme panel plus CYP450, Dihydropyridine, at 10 µM, stronger effect = higher value
[20] = target: Cytochrome P450 3A4 (Homo sapiens) (UniProt P08684); conditions: Ricerca radioligand binding/enzyme panel plus CYP450; CYP450, 3A4; at 10 µM; stronger effect = higher value
[21] = test system: Nicotinic Acetylcholine; conditions: Ricerca radioligand binding/enzyme panel plus CYP450, at 10 µM, stronger effect = higher value
[22] = target: 5-hydroxytryptamine receptor 2B (Homo sapiens) (UniProt P41595); conditions: Ricerca radioligand binding/enzyme panel plus CYP450; Serotonin (5-Hydroxytryptamine) 5-HT2B; at 10 µM; stronger effect = higher value
[23] = test system: Adrenergic alpha1A; conditions: Ricerca radioligand binding/enzyme panel plus CYP450, at 10 µM, stronger effect = higher value
[24] = test system: CYP450, 2C19; conditions: Ricerca radioligand binding/enzyme panel plus CYP450, at 10 µM, stronger effect = higher value
[25] = target: Cytochrome P450 2D6 (Homo sapiens) (UniProt P10635); conditions: Ricerca radioligand binding/enzyme panel plus CYP450; CYP450, 2D6; at 10 µM; stronger effect = higher value
[26] = test system: Histamine H1; conditions: Ricerca radioligand binding/enzyme panel plus CYP450, at 10 µM, stronger effect = higher value
[27] = test system: Alpha-2A adrenergic receptor (Homo sapiens) + Histamine H1 receptor (Homo sapiens) + Mu-type opioid receptor (Homo sapiens); conditions: Ricerca radioligand binding/enzyme panel plus CYP450; at 10 µM; stronger effect = higher value
[28] = test system: Adrenergic alpha1B; conditions: Ricerca radioligand binding/enzyme panel plus CYP450, at 10 µM, stronger effect = higher value
[29] = test system: Adenosine A2A; conditions: Ricerca radioligand binding/enzyme panel plus CYP450, at 10 µM, stronger effect = higher value
[30] = target: Cytochrome P450 2C9 (Homo sapiens) (UniProt P11712); conditions: Ricerca radioligand binding/enzyme panel plus CYP450; CYP450, 2C9; at 10 µM; stronger effect = higher value

Sequence of Muscarinic acetylcholine receptor M3 (Homo sapiens) (P20309 whole entry, looked up): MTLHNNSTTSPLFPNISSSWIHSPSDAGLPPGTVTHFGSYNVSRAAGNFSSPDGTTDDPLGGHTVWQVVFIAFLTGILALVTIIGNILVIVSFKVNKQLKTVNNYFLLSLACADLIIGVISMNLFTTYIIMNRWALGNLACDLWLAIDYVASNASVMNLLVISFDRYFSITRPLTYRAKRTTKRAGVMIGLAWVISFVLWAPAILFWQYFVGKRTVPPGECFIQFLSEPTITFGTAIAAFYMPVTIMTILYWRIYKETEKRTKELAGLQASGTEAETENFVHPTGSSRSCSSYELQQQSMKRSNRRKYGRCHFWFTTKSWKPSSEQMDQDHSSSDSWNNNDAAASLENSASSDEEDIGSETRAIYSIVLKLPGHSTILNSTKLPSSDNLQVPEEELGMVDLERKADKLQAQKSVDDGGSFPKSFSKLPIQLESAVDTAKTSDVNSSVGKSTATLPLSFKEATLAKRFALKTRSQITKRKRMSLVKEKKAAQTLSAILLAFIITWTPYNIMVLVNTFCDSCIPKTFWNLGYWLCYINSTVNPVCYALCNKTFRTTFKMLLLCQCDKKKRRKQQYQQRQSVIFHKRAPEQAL
Sequence of Beta-2 adrenergic receptor (Homo sapiens) (P07550 whole entry, looked up): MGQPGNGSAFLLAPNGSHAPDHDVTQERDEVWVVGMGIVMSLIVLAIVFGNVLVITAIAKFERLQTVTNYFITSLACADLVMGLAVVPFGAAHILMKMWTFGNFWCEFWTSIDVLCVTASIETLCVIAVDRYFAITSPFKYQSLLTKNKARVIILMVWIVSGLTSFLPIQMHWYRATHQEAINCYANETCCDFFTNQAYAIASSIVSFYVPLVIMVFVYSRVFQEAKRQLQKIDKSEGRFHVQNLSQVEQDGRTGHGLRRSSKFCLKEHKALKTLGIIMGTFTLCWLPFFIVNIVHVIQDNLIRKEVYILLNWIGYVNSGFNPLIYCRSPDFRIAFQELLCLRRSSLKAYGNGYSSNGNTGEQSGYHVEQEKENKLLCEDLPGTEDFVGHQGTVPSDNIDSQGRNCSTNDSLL
Sequence of Alpha-2A adrenergic receptor (Homo sapiens) (P08913 whole entry, looked up): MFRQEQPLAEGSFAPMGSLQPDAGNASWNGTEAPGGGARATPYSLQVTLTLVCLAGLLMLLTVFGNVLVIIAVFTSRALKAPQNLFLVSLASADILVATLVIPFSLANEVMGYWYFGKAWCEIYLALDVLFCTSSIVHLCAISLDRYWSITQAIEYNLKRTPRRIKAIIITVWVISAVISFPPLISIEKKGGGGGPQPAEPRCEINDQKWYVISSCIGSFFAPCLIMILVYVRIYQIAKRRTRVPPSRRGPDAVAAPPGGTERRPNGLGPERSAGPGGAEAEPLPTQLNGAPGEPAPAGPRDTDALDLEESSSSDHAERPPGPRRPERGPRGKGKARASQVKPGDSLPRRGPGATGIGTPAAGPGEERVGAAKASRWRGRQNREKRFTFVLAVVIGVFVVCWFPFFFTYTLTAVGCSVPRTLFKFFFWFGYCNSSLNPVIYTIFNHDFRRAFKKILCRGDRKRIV
Sequence of Voltage-gated inwardly rectifying potassium channel KCNH2 (Homo sapiens) (Q12809 whole entry, looked up): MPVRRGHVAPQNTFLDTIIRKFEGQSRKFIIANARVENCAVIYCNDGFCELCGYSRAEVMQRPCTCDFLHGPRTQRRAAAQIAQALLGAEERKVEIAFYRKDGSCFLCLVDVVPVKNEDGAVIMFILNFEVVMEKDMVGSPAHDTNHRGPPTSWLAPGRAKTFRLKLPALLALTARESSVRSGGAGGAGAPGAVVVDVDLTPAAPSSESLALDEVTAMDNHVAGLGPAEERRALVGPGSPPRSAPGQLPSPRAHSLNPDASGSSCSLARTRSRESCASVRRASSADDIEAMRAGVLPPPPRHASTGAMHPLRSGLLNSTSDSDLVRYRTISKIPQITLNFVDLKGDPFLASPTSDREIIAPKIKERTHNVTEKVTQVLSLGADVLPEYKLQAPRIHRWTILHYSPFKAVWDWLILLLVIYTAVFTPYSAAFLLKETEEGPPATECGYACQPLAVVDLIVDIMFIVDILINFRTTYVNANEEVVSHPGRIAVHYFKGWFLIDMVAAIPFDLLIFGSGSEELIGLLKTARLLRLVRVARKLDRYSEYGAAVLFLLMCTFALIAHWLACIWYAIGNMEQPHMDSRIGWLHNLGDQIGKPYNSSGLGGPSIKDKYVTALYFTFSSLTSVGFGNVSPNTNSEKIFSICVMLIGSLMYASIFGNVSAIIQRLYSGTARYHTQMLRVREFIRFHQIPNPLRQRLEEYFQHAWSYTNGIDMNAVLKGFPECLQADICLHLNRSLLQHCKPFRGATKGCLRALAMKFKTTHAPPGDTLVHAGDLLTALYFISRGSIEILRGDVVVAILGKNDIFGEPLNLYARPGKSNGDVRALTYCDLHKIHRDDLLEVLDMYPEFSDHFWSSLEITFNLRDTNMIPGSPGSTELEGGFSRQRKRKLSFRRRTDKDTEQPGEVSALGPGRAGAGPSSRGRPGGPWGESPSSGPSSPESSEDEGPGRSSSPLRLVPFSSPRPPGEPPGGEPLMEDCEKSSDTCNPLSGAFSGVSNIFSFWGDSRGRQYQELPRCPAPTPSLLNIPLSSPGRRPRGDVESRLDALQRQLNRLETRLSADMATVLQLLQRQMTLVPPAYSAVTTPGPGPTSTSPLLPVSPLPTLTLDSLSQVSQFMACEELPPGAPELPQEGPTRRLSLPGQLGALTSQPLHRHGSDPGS
Sequence of Cytochrome P450 3A4 (Homo sapiens) (P08684 whole entry, looked up): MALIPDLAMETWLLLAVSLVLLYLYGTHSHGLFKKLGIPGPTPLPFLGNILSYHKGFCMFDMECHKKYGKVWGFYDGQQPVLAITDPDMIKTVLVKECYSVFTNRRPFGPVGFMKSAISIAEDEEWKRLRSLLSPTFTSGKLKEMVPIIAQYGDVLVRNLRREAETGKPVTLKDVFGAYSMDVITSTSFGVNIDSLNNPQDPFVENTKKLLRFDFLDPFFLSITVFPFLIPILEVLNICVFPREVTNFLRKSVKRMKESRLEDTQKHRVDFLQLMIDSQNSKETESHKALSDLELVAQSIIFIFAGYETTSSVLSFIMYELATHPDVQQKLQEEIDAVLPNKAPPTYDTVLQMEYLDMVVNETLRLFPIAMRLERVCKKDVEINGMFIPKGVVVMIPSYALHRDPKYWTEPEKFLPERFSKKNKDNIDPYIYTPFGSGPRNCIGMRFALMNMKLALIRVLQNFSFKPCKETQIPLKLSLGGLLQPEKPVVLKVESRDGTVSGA
Sequence of Cytochrome P450 2D6 (Homo sapiens) (P10635 whole entry, looked up): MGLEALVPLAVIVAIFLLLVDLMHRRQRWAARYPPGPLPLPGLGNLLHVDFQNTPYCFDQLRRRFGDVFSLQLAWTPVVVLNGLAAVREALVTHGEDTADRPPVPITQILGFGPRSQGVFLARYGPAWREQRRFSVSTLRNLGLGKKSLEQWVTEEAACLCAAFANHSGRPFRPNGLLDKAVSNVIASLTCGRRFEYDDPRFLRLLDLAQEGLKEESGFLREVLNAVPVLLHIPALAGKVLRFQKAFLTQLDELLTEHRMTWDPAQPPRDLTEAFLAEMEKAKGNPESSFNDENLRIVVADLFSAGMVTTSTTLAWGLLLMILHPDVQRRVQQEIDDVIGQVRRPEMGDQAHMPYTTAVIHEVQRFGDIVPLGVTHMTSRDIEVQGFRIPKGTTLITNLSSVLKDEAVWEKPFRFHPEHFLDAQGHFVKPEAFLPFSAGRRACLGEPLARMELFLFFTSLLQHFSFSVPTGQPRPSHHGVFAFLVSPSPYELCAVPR
Sequence of 5-hydroxytryptamine receptor 2B (Homo sapiens) (P41595 whole entry, looked up): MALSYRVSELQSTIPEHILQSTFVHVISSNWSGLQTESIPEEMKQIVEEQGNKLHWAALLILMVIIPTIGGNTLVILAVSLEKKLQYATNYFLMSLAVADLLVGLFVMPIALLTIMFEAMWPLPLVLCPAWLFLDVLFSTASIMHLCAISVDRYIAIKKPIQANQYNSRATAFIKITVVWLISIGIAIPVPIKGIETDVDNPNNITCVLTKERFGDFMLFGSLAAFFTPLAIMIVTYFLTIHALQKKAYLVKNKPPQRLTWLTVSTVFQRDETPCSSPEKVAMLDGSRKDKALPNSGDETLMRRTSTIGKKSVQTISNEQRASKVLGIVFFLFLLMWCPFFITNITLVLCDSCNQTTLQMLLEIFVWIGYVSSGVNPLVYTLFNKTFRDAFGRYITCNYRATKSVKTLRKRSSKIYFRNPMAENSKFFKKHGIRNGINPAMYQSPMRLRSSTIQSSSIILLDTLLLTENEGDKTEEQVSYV
Sequence of Muscarinic acetylcholine receptor M2 (Homo sapiens) (P08172 whole entry, looked up): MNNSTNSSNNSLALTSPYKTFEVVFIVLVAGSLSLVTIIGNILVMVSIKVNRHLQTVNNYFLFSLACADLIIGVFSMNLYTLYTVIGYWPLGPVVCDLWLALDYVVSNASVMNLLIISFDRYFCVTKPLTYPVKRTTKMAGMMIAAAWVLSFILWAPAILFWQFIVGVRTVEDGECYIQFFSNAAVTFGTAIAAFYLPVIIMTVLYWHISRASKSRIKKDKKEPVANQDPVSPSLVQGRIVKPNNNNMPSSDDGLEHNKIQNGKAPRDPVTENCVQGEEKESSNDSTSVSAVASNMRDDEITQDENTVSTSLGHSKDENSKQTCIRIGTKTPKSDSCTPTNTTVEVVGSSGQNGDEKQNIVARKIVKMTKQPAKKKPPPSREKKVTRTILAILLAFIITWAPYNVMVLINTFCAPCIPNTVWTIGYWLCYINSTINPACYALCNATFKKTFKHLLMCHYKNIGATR
Sequence of D(1A) dopamine receptor (Homo sapiens) (P21728 whole entry, looked up): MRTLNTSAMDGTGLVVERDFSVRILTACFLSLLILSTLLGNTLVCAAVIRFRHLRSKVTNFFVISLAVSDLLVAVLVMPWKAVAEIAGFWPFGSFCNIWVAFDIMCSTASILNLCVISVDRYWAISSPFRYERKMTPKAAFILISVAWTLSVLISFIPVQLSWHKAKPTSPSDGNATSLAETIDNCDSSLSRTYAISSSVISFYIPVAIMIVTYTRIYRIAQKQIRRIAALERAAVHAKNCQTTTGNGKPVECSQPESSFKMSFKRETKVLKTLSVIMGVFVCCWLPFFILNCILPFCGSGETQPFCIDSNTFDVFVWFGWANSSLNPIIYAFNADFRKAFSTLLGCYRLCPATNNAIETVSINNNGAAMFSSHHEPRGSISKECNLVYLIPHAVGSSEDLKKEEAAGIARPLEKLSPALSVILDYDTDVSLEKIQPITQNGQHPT

Clc1ccc(OCCOc2ccc(Br)nc2Br)c(Cl)c1
inhibition [1]: 2% (inactive) | inhibition [2]: 12% (inactive) | inhibition [3]: 32% (inactive) | inhibition [4]: -3% (inactive) | inhibition ([5]; Ricerca radioligand binding/enzyme panel plus CYP450, Flunitrazepam): 2% (inactive) | inhibition ([5]; Ricerca radioligand binding/enzyme panel plus CYP450, Muscimol): 1% (inactive) | inhibition [6]: -7% (inactive) | inhibition [7]: -5% (inactive) | inhibition [8]: 18% (inactive) | inhibition [9]: 7% (inactive) | inhibition [10]: 9% (inactive) | inhibition [11]: 31% (inactive) | inhibition [12]: 22% (inactive) | inhibition [13]: 68% | inhibition [14]: 58% | inhibition [15]: 7% (inactive) | inhibition [16]: -1% (inactive) | inhibition [17]: 9% (inactive) | inhibition [18]: 25% (inactive) | inhibition [19]: 51% | inhibition [20]: -5% (inactive) | inhibition [21]: -4% (inactive) | inhibition [22]: 27% (inactive) | inhibition [23]: 28% (inactive) | inhibition [24]: 97% | inhibition [25]: 2% (inactive) | inhibition [26]: 15% (inactive) | inhibition [27]: 0% (inactive) | inhibition [28]: 26% (inactive) | inhibition [29]: 10% (inactive) | inhibition [30]: 3% (inactive)
